Experimental data taken from patent publication US20080145313A1, “Compositions and Methods for the Treatment and Prevention of Neoplastic Disorders” (Genesis Research & Development Corporation Limited, priority 2006, published 2008).

Legend:
A549 cells = assay: Growth inhibition of siRNA-transfected A549 cells, SYBR Green I DNA content; format: cell-based, human; conditions: A549 cells, 10 nM siRNA, DNA content 96 hours after transfection, transporter gene targets
Procedure, shortened: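 A549 cells reverse-transfected with 10 nM Stealth siRNAs via Lipofectamine RNAiMAX, seeded at 5×10^3 cells/cm^2 in RPMI 1640/10% FCS; non-specific siRNA control. DNA content read 96 h post-transfection by SYBR Green I fluorescence (ex 485/em 535 nm) after freeze-thaw and Triton X-100 lysis; mean of three wells.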

[1] = tested on: target transcript mRNA in A549 cells; assay: Level of mRNA of target transcript in A549 cells by quantitative RT-PCR (Tables 12 and 13); format: cell-based, human; conditions: 24 h post-transfection; for mRNA knockdown of transporter gene target transcript, 0.1 nM: 0.1 nM siRNA; for mRNA knockdown of transporter gene target transcript, 1 nM: 1 nM siRNA
Procedure, shortened: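 A549 cells were transfected with siRNA at 0.1, 1.0 and 10 nM. RNA was extracted 24 h later, reverse-transcribed with random primers, and target mRNA quantified by SYBR Green qRT-PCR. Values were normalised to housekeeping genes HPRT and Lamin.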

Substance	Growth Inhibition in A549 cells by 10 nM siRNA (A549 cells)	mRNA knockdown of transporter gene target transcript, 0.1 nM [1]	mRNA knockdown of transporter gene target transcript, 1 nM [1]
SEQ ID NO: 4953: siRNA targeting ATP6V1B2 (chain 1 ATGATATCAAGGAAGTCTTCGGCCA; chain 2 AUGAUAUCAAGGAAGUCUUCGGCCA; chemistry not given here; one strand in two spellings)	++ (inhibits by at least 75%)	− (<50% mRNA knockdown)	+ (50-70% mRNA knockdown)
SEQ ID NO: 4893: siRNA targeting SLC2A1 (GLUT1) (chain 1 TTCATCATCAGCATTGAATTCCGCC; chain 2 UUCAUCAUCAGCAUUGAAUUCCGCC; Antisense strand given in DNA and RNA notation, chemistry not given here; one strand in two spellings)	++ (inhibits by at least 75%)	− (<50% mRNA knockdown)	− (<50% mRNA knockdown)
SEQ ID NO: 4959: siRNA targeting ATP6V1E1 (chain 1 TGGTCAATTTGGACATCAACATCGT; chain 2 UGGUCAAUUUGGACAUCAACAUCGU; chemistry not given here; one strand in two spellings)	− (no growth inhibition)	− (<50% mRNA knockdown)	++ (70-90% mRNA knockdown)
SEQ ID NO: 4948: siRNA targeting ATP2B4 (PMCA4) (chain 1 ATCTGAGTCTGGATACGGTTCAGGC; chain 2 AUCUGAGUCUGGAUACGGUUCAGGC; chemistry not given here; one strand in two spellings)	− (no growth inhibition)	− (<50% mRNA knockdown)	++ (70-90% mRNA knockdown)
SEQ ID NO: 4939: siRNA targeting ATP2B1 (PMCA1) (chain 1 ATTAACAGTAAGTTGGAACTGAAGG; chain 2 AUUAACAGUAAGUUGGAACUGAAGG; chemistry not given here; one strand in two spellings)	− (no growth inhibition)	+ (50-70% mRNA knockdown)	++ (70-90% mRNA knockdown)
SEQ ID NO: 4978: siRNA targeting ABCB1 (MDR1) (chain 1 TTGGTACTAAGCTTTCTGTCTTGGG; chain 2 UUGGUACUAAGCUUUCUGUCUUGGG; chemistry not given here; one strand in two spellings)	− (no growth inhibition)	− (<50% mRNA knockdown)	− (<50% mRNA knockdown)
SEQ ID NO: 4929: siRNA targeting SLC25A10 (DIC) (chain 1 TAGGTCATCTGTCTGCACAGCGAGG; chain 2 UAGGUCAUCUGUCUGCACAGCGAGG; chemistry not given here; one strand in two spellings)	− (no growth inhibition)	− (<50% mRNA knockdown)	+ (50-70% mRNA knockdown)
SEQ ID NO: 4937: siRNA targeting ATP2B1 (PMCA1) (chain 1 ATTTATGTAAGCTTGAACGACTGTC; chain 2 AUUUAUGUAAGCUUGAACGACUGUC; chemistry not given here; one strand in two spellings)	− (no growth inhibition)	++ (70-90% mRNA knockdown)	++ (70-90% mRNA knockdown)
